Earlier results in patent US7993684B2, “Method of inhibiting alveolar bone resorption and periodontal membrane loss and composition for internal use to be used therein” (Sunstar Inc., priority 2003, dated 2011).

How the values were obtained:
[1] = system: alveolar bone resorption; conditions: Japanese Unexamined Patent Publication No. 1996-133969
[2] = system: periodontal disease-causing bacteria; conditions: Japanese Unexamined Patent Publication No. 1992-283518

Compound	Inhibition of alveolar bone resorption related to periodontal disease [1]	Antibacterial activity against periodontal disease-causing bacteria [2]
calcium pantothenate	inhibit alveolar bone resorption	
O=c1c(-c2ccc(O)cc2)coc2cc(O)cc(O)c12 [genistein]		shows antibacterial activity
